For assay [1], the system named is serum total nitrite. The assay is described as follows: Example 3 serum total nitrite. The format is in vivo, mouse. The conditions noted are these: IM-CO mice. On the procedure: Ileus was induced in mice by gentle manipulation of the small intestine. An incision was made to expose the abdominal cavity of the mouse, and bowel manipulation was performed by gentle poking and prodding of the small intestine (see, e.g., Schwarz et al., Gastroenterology 121(6):1354-1357 (2001)). The incision was subsequently closed, and analyses were performed 24 hours later. Mice were exposed to CO by inhalation (250 and 500 ppm) for 1 hour immediately prior to intestinal manipulation and during the entire 24-hour recovery period. Intestinal contractility was assessed in vitro by measuring circular muscle strip contractions in response to bethanechol (0.3-300 μM) and in vivo by determining intestinal transit from the distribution of orally-fed, fluorescein-labeled dextran and calculating geometric center as described in Example 1 above. HO-1 and IL-10 mRNA expression were determined by SYBR green real time RT-PCR from extracts of muscularis extemae, as described in Example 1 above. Release of nitric oxide (NO), a potent inhibitor of smooth muscle contractility, was estimated by measuring serum total nitrite, also described in Example 1 above.

The subject of assay [2] is IL-1β mRNA. The assay is described as follows: IL-1β mRNA expression in muscularis externae of intestinal grafts. The format is in vivo, rat. As for the experimental part: To investigate the sequential analysis of cytokine mRNA expression in the mucosa and muscularis, RNase protection assay was performed with the Riboquant™ kit (Pharmingen) according to the protocol of the manufacturer. […] Quantification of radioactivity of mRNA bands was performed with NIH Image, normalized to GAPDH, and expressed as a ratio of cytokine /GAPDH (n=3-4).
The effects of inhalation of CO on transplant-induced pro-inflammatory and anti-inflammatory gene expression was assessed in muscularis extracts by RT-PCR. […] Equal aliquots (5 μg) of total RNA from each sample were quantified by spectrophotometry (wavelength […]) and aliquoted at a concentration of 40 ng/μl. Peak mRNA expression was quantified in duplicate by SYBR Green two-step, real-time RT-PCR. […] Real-time PCR data were plotted as the ΔRn, fluorescence signal versus the cycle number. […] Quantification of mRNA expression was normalized to GAPDH and calculated relative to control using the comparative CT method (Schmittgen et al., J. Biochem. Biophys. Methods 46(1-2):69-8 (2000)). […]

The text below walks through data of patent publication US7687079B2, “Methods of treating ileus” (priority 2002, dated 2010).

In turn, `[C-]#[O+]` [CO, carbon monoxide] gave a serum nitrite in assay [1] of 6.0 ± 1.6 µM. Also, the “IL-1β mRNA” value in assay [2] (SITx + CO, Table 2) was 6.6 + 0.1 % GAPDH. Also, the “reduction of mean relative IL-1β mRNA expression” value in assay [2] (SITx recipients treated with CO vs SITx, 4 hours after reperfusion, p=0.046) is reported as 50%.
